According to patent publication US20230405057A1, “MEDICAL COMPOSITIONS AND THEIR USE IN TREATING INFLAMMATORY BOWEL DISEASE” (BIOMILLENIA SAS, priority 2019, published 2023):
“Also recorded” adds a separate entry of the source.

How the values were obtained:
Format in all cases: cell-based
Malassezia restricta [1] = test: Modified disc diffusion assay with living Acetobacter culture; settings: 6 mm discs soaked with 15 ul exponentially growing Acetobacter culture or ketoconazole 1 mg/mL in DMSO; 5 days incubation
Protocol: (§1) FIG. 1|Inhibition assays of M. restricts and M. globose by growth of Acetobacter fabarum. Discs were soaked with ketoconazole (1 mg/ml in DMSO) or exponentially growing Acetobacter fabarum culture and placed on agar plates containing a soft layer inoculated with a single culture of the different Malassezia species to be tested. In the upper panel, inhibition of Malassezia globosa is shown; in the bottom panel, Malassezia restricta is shown.
(§2) In order to identify strains whose growth inhibits Malassezia, inhibition assays were performed using a modified disc diffusion method. This method is similar to the classical disk diffusion method that consists in depositing discs imbibed with potential inhibitory substances on Petri plates containing a strain of interest, except that the disks were imbibed with a living culture of an Acetobacter strain. After optimal growth of the strain of interest, growth inhibition can be observed around discs on which the growth of inhibitory bacteria has occurred. Ketoconazole (at 1 mg/mL in DMSO) was used as a positive control for Malassezia growth inhibition. The effect of growth of Acetobacter was tested on Malassezia restricta and Malassezia globosa. All Malassezia strains were streaked from −80° C. stock on Modified Leeming and Notman (MLN) agar plates and incubated 10 days at 30° C. […]

Malassezia globosa [2] = test: as above; settings: 6 mm discs soaked with 15 ul exponentially growing Acetobacter culture or ketoconazole 1 mg/mL in DMSO; 5 days incubation
Protocol: as §1, §2

Malassezia restricta [3] = test: Disc diffusion growth inhibition assay (supernatants); settings: 6 mm discs soaked with 15 ul supernatant or ketoconazole 1 mg/ml in DMSO; soft agar lawn; 5 days incubation
Protocol: (§3) FIG. 1|Inhibition assays of the fungicide ketoconazole as positive control for inhibition and Kazachstania unispora supernatant on M. sympodialis, M. furfur, M. restricts and M. globosa. Inhibition assays were performed using the disc diffusion method. Discs were soaked with ketoconazole (1 mg/ml) or K. unispora supernatant and placed on agar plates containing a soft layer inoculated with a single culture of the different Malassezia species to be tested.
(§4) In order to identify strains inhibiting Malassezia growth, inhibition assays were performed using the disc diffusion method. This method consists in disposing discs imbibed with potential inhibitory substances on Petri plates containing a strain of interest. After optimal growth of the strain of interest, growth inhibition can be observed around discs soaked with substances having an inhibitory effect. Potential inhibitory substances tested in this experiment are supernatants obtained after individually culturing a collection of fungal and bacterial strains. After an incubation of 10 days in their optimal broth, each culture was centrifuged and the supernatant was filtered and further stored at −20° C. Ketoconazole, a fungicide, was used as a positive control for Malassezia growth inhibition. It was diluted in dimethyl sulfoxide at 1 mg/ml. The collection of supernatants was tested on the following species from the genus Malassezia: Malassezia restricta, Malassezia globosa, Malassezia furfur and Malassezia sympodialis. All strains were streaked from −80° C. stock on Modified Leeming and Notman (MLN) agar plates and incubated 10 days at 30° C. A 5 ml liquid culture of each species was made in MLN broth and incubated at 30° C. for 2 days for M. furfur and M. sympodialis and 5 days for M. restricta and M. globosa. To allow a lawn growth of the different Malassezia strains tested, Petri plates were prepared as follows: a bottom layer of 50 ml Modified Sabouraud Dextrose (MSD) agar was poured in Petri plates. The soft agar, constituting the top layer, was a mix of 12.5 ml MSD agar, 10.5 ml MLN broth and 2 ml of liquid culture. Plates were allowed to dry for one hour, then, 6 mm-diameter Whatman™ discs were soaked with 15 ul of each thawed supernatants and ketoconazole and placed on the soft agar plate containing the solidified Malassezia monoculture layer. After an incubation of 5 days, inhibition area could be easily observed around discs. As expected, ketoconazole inhibited all 4 Malassezia species tested in this experiment. […] The strain from which the inhibitory supernatant has been produced was further sequenced using the Sanger technology. The internal transcribed spacer (ITS) of this strain was taxonomically assigned to the yeast Kazachstania unispora (BLASTn, 99% identity, 99% query cover, e-value 0.00).

Malassezia globosa [4] = test: as above; settings: 6 mm discs soaked with 15 ul supernatant or ketoconazole 1 mg/ml in DMSO; soft agar lawn; 5 days incubation
Protocol: as §3, §4

Malassezia sympodialis = test: as above; settings: 6 mm discs soaked with 15 ul supernatant or ketoconazole 1 mg/ml in DMSO; soft agar lawn; 5 days incubation
Protocol: as §3, §4

Malassezia furfur = test: as above; settings: 6 mm discs soaked with 15 ul supernatant or ketoconazole 1 mg/ml in DMSO; soft agar lawn; 5 days incubation
Protocol: as §3, §4

Structure (SMILES): CC(=O)N1CCN(c2ccc(OCC3COC(Cn4ccnc4)(c4ccc(Cl)cc4Cl)O3)cc2)CC1 (stereo not drawn) [ketoconazole]
- growth inhibition (inhibition halo around disc) of Malassezia restricta (Malassezia restricta [1]): inhibits growth; also recorded: inhibited
- growth inhibition (inhibition halo around disc) of Malassezia globosa (Malassezia globosa [2]): inhibits growth; also recorded: inhibited
- growth inhibition (inhibition halo around disc) of Malassezia restricta (Malassezia restricta [3]): inhibits growth; also recorded: inhibited
- growth inhibition (inhibition halo around disc) of Malassezia globosa (Malassezia globosa [4]): inhibits growth; also recorded: inhibited
- growth inhibition (inhibition halo around disc) of Malassezia sympodialis (Malassezia sympodialis): inhibits growth; also recorded: inhibited
- growth inhibition (inhibition halo around disc) of Malassezia furfur (Malassezia furfur): inhibits growth; also recorded: inhibited
